The source of these data is patent USRE38169E1, “Hyperstabilizing antisense nucleic acid binding agents” (priority 1993, dated 2003).

Experiment [1] deals with Oligo dA - Oligo dT. The experiment can be described thus: Duplex strand separation temperature (Tm). Type of experiment: binding. The protocol:
(§1) Samples for determining Tm were also obtained by the above procedures. […] Thus the effects of this agent on Tm were carried out with Distamycin in solution with the duplexes tested.
(§2) Tm's were determined on a Gilford 2400 Spectrophotometer set at 260 nm, with a 4-chamber Peltier-based temperature controller. Temperature was ramped linearly at 0.5° C./min. Absorbance data were acquired with a 12-bit A/D converter, and data were processed with Lotus 123W and SigmaPlot software. Tm values were determined from the plots as the midpoint of the thermal transitions.

Experiment [2] deals with Poly rA - Oligo dT (PO). As to the kind of experiment: Duplex strand separation temperature (Tm). In kind it is binding. The protocol:
as §1, §2

Experiment [3] concerns mRNA of a fragment of the env gene of EIAV. As to the kind of experiment: In vitro translation (wheat-germ extract, 35S-methionine). In kind it is biochemical. The conditions noted are these: 1.95 μg mRNA; antisense about 3 times mRNA sense; CC-1065 3 times antisense; scintillation spectrometry. The protocol:
The in vitro translation studies were performed as follows. A fragment of DNA from the env gene of EIAV was transcribed with an SP-6 polymerase kit, and the resulting mRNA (approximately 600 bases long) was capped and isolated. The transcribed fragment included the target sequence 5′-[…]-3′ (SEQ ID NO. 3) (the CC-1065 binding site is underlined). The corresponding antisense sequence (using normal phosphodiester chemistry) was 5′-[…]-3′ (SEQ ID NO. 4). Translation was performed with a wheat-germ extract (Promega) in the presence of ^35S-methionine. The mRNA's were divided into approximately 2 μg aliquots, and treated according to the protocols listed for Table 3 below. Treated mRNA was separated from small molecules (such as DMSO and CC-1065) with a Sephadex 50-based NICK column. Translation was carried out in 25 μl of buffer containing the wheat germ translation system; the isolated mRNA; amino acids, including the labelled methionine; and RNAsin, an inhibitor of RNase. The proteins produced were divided into two aliquots. One aliquot was fractionated by SDS-PAGE, followed by autoradiography; and the other was analyzed by scintillation spectrometry. The concentrations of antisense oligomers and CC-1065 in the free-solution chemistries were relatively high compared to the sense target, to optimize duplex formation and drug binding. […] The following pairs were different at the P<0.05 level by Student's t-test (unpaired analysis): 1,5; 2,5; 3,4; 3,5; 4,5.

[4] abbreviates: CC-1065 initial D/N = 0.025, regions lacking CC-1065.
Setting [5] is: CC-1065 initial D/N = 0.025, regions with CC-1065.
Where [6] appears, read: CC-1065 initial D/N = 0.1, minimum Tm estimate.

Each structure is given as a SMILES string.

For `COc1c(O)c2c(c3cc(C(=O)N4CCc5c4c(O)c(OC)c4[nH]c(C(=O)N6CC7CC78C6=CC(=O)c6[nH]cc(C)c68)cc54)[nH]c13)CCN2C(N)=O` (stereo not drawn) [CC-1065], the entries for the “Tm, lower transition of biphasic curve” value in experiment [1] (setting [4]) and in experiment [2] (setting [4]) were 50 °C and 51 °C, respectively. In addition, the figures for the “Tm, higher transition of biphasic curve” value in experiment [1] (setting [5]) and in experiment [2] (setting [5]) were 85 °C and 76 °C, respectively. Besides, the Tm in experiment [1] (setting [6]) is ≥ 85.5 ± 0.7^4,5 °C; in experiment [2] (setting [6]), ≥ 81.3 ± 0.6^4,5 °C. The “Duplex Strand Separation Temperature” value in experiment [1] (Oligo dA / Oligo dT, drug-bound duplex (Table 6)) is listed as ≥ 85.5 ± 0.7^4; in experiment [2] (Poly rA / Oligo dT (PO), drug-bound duplex (Table 6)) it was ≥ 81.3 ± 0.6^4. Further, the “Tm Elevation” value in experiment [1] (dA-dT, highest level of binding obtained) came to 28.5 °C; in experiment [2] (rA-dT, highest level of binding obtained) it was 28.3 °C. Besides, the “Stabilization of duplexes” value in experiment [2] (poly(rA)-oligo(dT)) is listed as “strong stabilization”. In experiment [3], the “DPM S-35 ± standard error” value is recorded as 133.040 ± 13.227 DPM.
